Data: patent EP4603105A1, “PHARMACEUTICAL COMPOSITION CONTAINING CYCLIC COMPOUND HAVING SELECTIVE KRAS INHIBITORY EFFECT AGAINST HRAS AND NRAS” (CHUGAI SEIYAKU KABUSHIKI KAISHA, priority 2022, dated 2024)

Tests used:
[1] = system: human lung cancer strain NCI-H441; format: cell-based
Summary of the method: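 Step one: dispense the test compound in serial DMSO dilutions. Step three: add the reagent and measure […].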

[2] = target: GDP-bound KRAS wild-type protein (Homo sapiens, UniProt P01116); experiment: Binding to KRAS by surface plasmon resonance (SPR), dissociation constant KD; conditions: Single Cycle Kinetics, 1:1 binding model
Summary of the method: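 GDP-loaded biotinylated Avi-tag RAS proteins (E. coli-expressed) captured on a Biotin CAPture chip at ~100–300 RU; single-cycle kinetics at 30°C, 100 µL/min, 75 s injections of rising compound concentrations. HBS pH 7.4 running buffer with 1 mM DTT, 10 mM MgCl2, 10 µM GDP, 4% DMSO. KD from 1:1 binding fit.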

[3] = target: GDP-bound NRAS wild-type protein (Homo sapiens, UniProt P01111); experiment: Binding to NRAS by surface plasmon resonance (SPR), KD and KD ratio to KRAS; conditions: ratio of the KD value with respect to GDP-bound NRAS wild-type protein to the KD value with respect to KRAS
Summary of the method: (§1)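 Biotinylated GDP-bound RAS was captured at about 100–300 RU. Running buffer: HBS pH 7.4, 10 mM MgCl2, 10 µM GDP, 1 mM DTT, 0.01% Tween 20, 4% DMSO.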

HRAS wild-type protein = HRAS wild-type protein (Homo sapiens, UniProt P01112); experiment: Binding to HRAS by surface plasmon resonance (SPR), KD and KD ratio to KRAS; conditions: ratio of the KD value with respect to HRAS wild-type protein to the KD value with respect to KRAS
Summary of the method: as §1

Sequence of HRAS wild-type protein (P01112 whole entry): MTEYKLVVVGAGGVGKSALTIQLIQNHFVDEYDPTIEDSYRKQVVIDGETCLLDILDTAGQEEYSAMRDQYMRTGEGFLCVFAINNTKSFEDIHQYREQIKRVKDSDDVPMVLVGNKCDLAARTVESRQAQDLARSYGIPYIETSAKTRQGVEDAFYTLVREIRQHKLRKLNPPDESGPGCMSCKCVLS
Sequence of GDP-bound KRAS wild-type protein (P01116 1-188 isoform P01116-2): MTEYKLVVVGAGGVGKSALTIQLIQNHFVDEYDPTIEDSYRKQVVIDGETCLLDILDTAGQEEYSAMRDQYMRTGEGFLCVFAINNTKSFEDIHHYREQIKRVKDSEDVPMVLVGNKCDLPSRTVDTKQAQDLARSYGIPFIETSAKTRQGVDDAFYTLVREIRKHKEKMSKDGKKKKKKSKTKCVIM
Sequence of GDP-bound NRAS wild-type protein (P01111 whole entry): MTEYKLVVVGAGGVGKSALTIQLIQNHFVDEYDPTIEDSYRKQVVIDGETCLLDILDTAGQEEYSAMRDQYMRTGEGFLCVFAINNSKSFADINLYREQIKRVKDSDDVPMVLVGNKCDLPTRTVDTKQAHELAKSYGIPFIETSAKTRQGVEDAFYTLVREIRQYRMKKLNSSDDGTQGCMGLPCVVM

IC50 [1] [nM]	Kd [2] [nM]	SMILES	NRAS /KRAS [3]	HRAS /KRAS (HRAS wild-type protein)
690	2	CC[C@H](C)[C@@H]1NC(=O)[C@H](CC)N(C)C(=O)C[C@@H](C(=O)N(C)C)N(C)C(=O)[C@H](C2CCCC2)N(C)C(=O)C2(CCC2)NC(=O)[C@@H]2CCN2C(=O)[C@H](CCc2cc(F)c(C(F)(F)F)c(F)c2)NC(=O)CN(C)C(=O)[C@H](Cc2ccc(C(F)(F)F)cc2)N2CCCCC[C@@H](C2=O)N(C)C(=O)CN(C)C1=O [PP0654]	B (a compound having 3 or more and less than 10 is denoted as B)	B (a compound having 3 or more and less than 10 is denoted as B)
20.3	0.52	CCO[C@@H]1C[C@H]2C(=O)NC3(CCC3)C(=O)N(C)[C@@H](C3CCCC3)C(=O)N(C)[C@H](C(=O)N(C)C)CC(=O)N(C)[C@@H](CC(C)(C)C)C(=O)N[C@@H]([C@@H](C)CC)C(=O)N(C)CC(=O)N(C)[C@H]3CCCCCN(C3=O)[C@@H](Cc3ccc(C(F)(F)F)cc3)C(=O)N(C)CC(=O)N[C@@H](CCc3cc(F)c(C(F)(F)F)c(F)c3)C(=O)N2C1 [PP0669]	B (a compound having 3 or more and less than 10 is denoted as B)	B (a compound having 3 or more and less than 10 is denoted as B)
25.5	0.22	CCO[C@@H]1C[C@H]2C(=O)NC3(CCC3)C(=O)N(C)[C@@H](C3CCCC3)C(=O)N(C)[C@H](C(=O)N(C)C)CC(=O)N(C)[C@@H](CCOC)C(=O)N[C@@H]([C@@H](C)CC)C(=O)N(C)CC(=O)N(C)[C@H]3CCCCCN(C3=O)[C@@H](Cc3ccc(C(F)(F)F)cc3)C(=O)N(C)CC(=O)N[C@@H](CCc3cc(F)c(C(F)(F)F)c(F)c3)C(=O)N2C1 [PP0675]	B (a compound having 3 or more and less than 10 is denoted as B)	B (a compound having 3 or more and less than 10 is denoted as B)
44.7	0.61	CCO[C@@H]1C[C@H]2C(=O)NC3(CCC3)C(=O)N(C)[C@@H](C3CCCC3)C(=O)N(C)[C@H](C(=O)N3CCOCC3)CC(=O)N(C)[C@@H](CC3CCC3)C(=O)N[C@@H]([C@@H](C)CC)C(=O)N(C)CC(=O)N(C)[C@H]3CCCCCN(C3=O)[C@@H](Cc3ccc(C(F)(F)F)cc3)C(=O)N(C)CC(=O)N[C@@H](CCc3cc(F)c(C(F)(F)F)c(F)c3)C(=O)N2C1 [PP0683]	B (a compound having 3 or more and less than 10 is denoted as B)	B (a compound having 3 or more and less than 10 is denoted as B)
45	1.1	CCO[C@@H]1C[C@H]2C(=O)NC3(CCC3)C(=O)N(C)[C@@H](C3CCCC3)C(=O)N(C)[C@H](C(=O)N3CCOCC3)CC(=O)N(C)[C@@H](CC(C)(C)C)C(=O)N[C@@H]([C@@H](C)CC)C(=O)N(C)CC(=O)N(C)[C@H]3CCCCCN(C3=O)[C@@H](Cc3ccc(C(F)(F)F)cc3)C(=O)N(C)CC(=O)N[C@@H](CCc3cc(F)c(C(F)(F)F)c(F)c3)C(=O)N2C1 [PP0684]	B (a compound having 3 or more and less than 10 is denoted as B)	B (a compound having 3 or more and less than 10 is denoted as B)
44.1	0.64	CCO[C@@H]1C[C@H]2C(=O)NC3(CCC3)C(=O)N(C)[C@@H](C3CCCC3)C(=O)N(C)[C@H](C(=O)N3CCOCC3)CC(=O)N(C)[C@@H](Cc3ccccc3)C(=O)N[C@@H]([C@@H](C)CC)C(=O)N(C)CC(=O)N(C)[C@H]3CCCCCN(C3=O)[C@@H](Cc3ccc(C(F)(F)F)cc3)C(=O)N(C)CC(=O)N[C@@H](CCc3cc(F)c(C(F)(F)F)c(F)c3)C(=O)N2C1 [PP0687]	B (a compound having 3 or more and less than 10 is denoted as B)	B (a compound having 3 or more and less than 10 is denoted as B)
2.9	0.013	CCO[C@@H]1C[C@H]2C(=O)NC3(CCC3)C(=O)N(C)[C@@H](C3CCCC3)C(=O)N(C)[C@H](C(=O)N(C)C)CC(=O)N(C)[C@@H](CC3CCCC3)C(=O)N[C@@H]([C@@H](C)CC)C(=O)N(C)CC(=O)N(C)[C@H]3CCCCN(C3=O)[C@@H](Cc3ccc(C(F)(F)F)cc3)C(=O)N(C)CC(=O)N[C@@H](CCc3cc(F)c(C(F)(F)F)c(F)c3)C(=O)N2C1 [PP0700]	C (A compound having a KD ratio of 0.1 or more and less than 3 is denoted as C)	B (a compound having 3 or more and less than 10 is denoted as B)
42.3	0.029	CCO[C@@H]1C[C@H]2C(=O)NC3(CCC3)C(=O)N(C)[C@@H](C3CCCC3)C(=O)N(C)[C@H](C(=O)N3CCOCC3)CC(=O)N(C)[C@@H](Cc3cccnc3)C(=O)N[C@@H]([C@@H](C)CC)C(=O)N(C)CC(=O)N(C)[C@H]3CCCCN(C3=O)[C@@H](Cc3ccc(C(F)(F)F)cc3)C(=O)N(C)CC(=O)N[C@@H](CCc3cc(F)c(C(F)(F)F)c(F)c3)C(=O)N2C1 [PP0718]	C (A compound having a KD ratio of 0.1 or more and less than 3 is denoted as C)	B (a compound having 3 or more and less than 10 is denoted as B)

More lines, now with the values behind:

SMILES	IC50 [1] [nM]	Kd [2] [nM]	NRAS /KRAS [3]	HRAS /KRAS (HRAS wild-type protein)
CCCN1C(=O)[C@H](C2CCCC2)N(C)C(=O)C2(CCC2)NC(=O)[C@@H]2C[C@@H](OCC)CN2C(=O)[C@H](CCc2cc(F)c(C(F)(F)F)c(F)c2)NC(=O)CN(C)C(=O)[C@H](Cc2ccc(C(F)(F)F)cc2)N2CCCC[C@@H](C2=O)N(C)C(=O)CN(C)C(=O)[C@H]([C@@H](C)CC)NC(=O)[C@H](CC)N(C)C(=O)C[C@H]1C(=O)N(C)C [PP0644]	20.7	0.15	C (A compound having a KD ratio of 0.1 or more and less than 3 is denoted as C)	B (a compound having 3 or more and less than 10 is denoted as B)
CCO[C@@H]1C[C@H]2C(=O)NC3(CCC3)C(=O)N(C)[C@@H](C3CCCC3)C(=O)N(C)[C@H](C(=O)N(C)C)CC(=O)N(C)[C@@H](CC3CCCC3)C(=O)N[C@@H]([C@@H](C)CC)C(=O)N(C)CC(=O)N(C)[C@H]3CCCCCN(C3=O)[C@@H](Cc3ccc(C(F)(F)F)cc3)C(=O)N(C)CC(=O)N[C@@H](CCc3cc(F)c(C(F)(F)F)c(F)c3)C(=O)N2C1 [PP0670]	11.3	0.28	B (a compound having 3 or more and less than 10 is denoted as B)	B (a compound having 3 or more and less than 10 is denoted as B)
CCO[C@@H]1C[C@H]2C(=O)NC3(CCC3)C(=O)N(C)[C@@H](C3CCCC3)C(=O)N(C)[C@H](C(=O)N(C)C)CC(=O)N(C)[C@@H](CC3CCCCC3)C(=O)N[C@@H]([C@@H](C)CC)C(=O)N(C)CC(=O)N(C)[C@H]3CCCCCN(C3=O)[C@@H](Cc3ccc(C(F)(F)F)cc3)C(=O)N(C)CC(=O)N[C@@H](CCc3cc(F)c(C(F)(F)F)c(F)c3)C(=O)N2C1 [PP0671]	32.5	0.67	B (a compound having 3 or more and less than 10 is denoted as B)	B (a compound having 3 or more and less than 10 is denoted as B)
CCO[C@@H]1C[C@H]2C(=O)NC3(CCC3)C(=O)N(C)[C@@H](C3CCCC3)C(=O)N(C)[C@H](C(=O)N(C)C)CC(=O)N(C)[C@@H](Cc3ccccc3)C(=O)N[C@@H]([C@@H](C)CC)C(=O)N(C)CC(=O)N(C)[C@H]3CCCCCN(C3=O)[C@@H](Cc3ccc(C(F)(F)F)cc3)C(=O)N(C)CC(=O)N[C@@H](CCc3cc(F)c(C(F)(F)F)c(F)c3)C(=O)N2C1 [PP0672]	19.7	0.3	B (a compound having 3 or more and less than 10 is denoted as B)	B (a compound having 3 or more and less than 10 is denoted as B)
CCO[C@@H]1C[C@H]2C(=O)NC3(CCC3)C(=O)N(C)[C@@H](C3CCCC3)C(=O)N(C)[C@H](C(=O)N3CCOCC3)CC(=O)N(C)[C@@H](CC3CCCC3)C(=O)N[C@@H]([C@@H](C)CC)C(=O)N(C)CC(=O)N(C)[C@H]3CCCCCN(C3=O)[C@@H](Cc3ccc(C(F)(F)F)cc3)C(=O)N(C)CC(=O)N[C@@H](CCc3cc(F)c(C(F)(F)F)c(F)c3)C(=O)N2C1 [PP0685]	52.3	0.8	B (a compound having 3 or more and less than 10 is denoted as B)	B (a compound having 3 or more and less than 10 is denoted as B)
CCO[C@@H]1C[C@H]2C(=O)NC3(CCC3)C(=O)N(C)[C@@H](C3CCCC3)C(=O)N(C)[C@H](C(=O)N3CCOCC3)CC(=O)N(C)[C@@H](CC3CCCCC3)C(=O)N[C@@H]([C@@H](C)CC)C(=O)N(C)CC(=O)N(C)[C@H]3CCCCCN(C3=O)[C@@H](Cc3ccc(C(F)(F)F)cc3)C(=O)N(C)CC(=O)N[C@@H](CCc3cc(F)c(C(F)(F)F)c(F)c3)C(=O)N2C1 [PP0686]	65.7	1	B (a compound having 3 or more and less than 10 is denoted as B)	B (a compound having 3 or more and less than 10 is denoted as B)
CCO[C@@H]1C[C@H]2C(=O)NC3(CCC3)C(=O)N(C)[C@@H](C3CCCC3)C(=O)N(C)[C@H](C(=O)N(C)C)CC(=O)N(C)[C@@H](C)C(=O)N[C@@H]([C@H](C)CC)C(=O)N(C)CC(=O)N(C)[C@H]3CCCCCN(C3=O)[C@@H](Cc3ccc(C(F)(F)F)cc3)C(=O)N(C)CC(=O)N[C@@H](CCc3cc(F)c(C(F)(F)F)c(F)c3)C(=O)N2C1 [PP0729]	216	2.7	B (a compound having 3 or more and less than 10 is denoted as B)	B (a compound having 3 or more and less than 10 is denoted as B)
